Data as given in patent publication US12011444B2, “N-substituted indole derivatives as PGE2 receptor modulators” (Idorsia Pharmaceuticals Ltd, priority 2015, dated 2024).

How the values were obtained:
PTGER2 (EP2) = PTGER2 (EP2) (Homo sapiens (Human), UniProt P43116); assay: hEP2 b-arrestin assay (PathHunter HEK 293 PTGER2 b-arrestin cells); type: cell-based; details: hEP2 b-arrestin assay (values without asterisk)
Summary of the method: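 Readout is β-galactosidase complementation luminescence, expressed as percent of DMSO control (duplicates). PathHunter HEK293 EP2/β-arrestin 2 cells, grown 24 h, received compound for 15 min at 37 °C before a 120 min challenge with PGE2 at 5 μM final, followed by 1 h detection at room temperature.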

PTRGER4 (EP4) = PTRGER4 (EP4) (Homo sapiens (Human), UniProt P35408); assay: hEP4 b-arrestin assay (PathHunter HEK 293 PTGER4 b-arrestin cells); type: cell-based; details: hEP4 b-arrestin assay (values without asterisk)
Sequence of PTRGER4 (EP4) (P35408 whole entry, looked up, the tested form may be a part): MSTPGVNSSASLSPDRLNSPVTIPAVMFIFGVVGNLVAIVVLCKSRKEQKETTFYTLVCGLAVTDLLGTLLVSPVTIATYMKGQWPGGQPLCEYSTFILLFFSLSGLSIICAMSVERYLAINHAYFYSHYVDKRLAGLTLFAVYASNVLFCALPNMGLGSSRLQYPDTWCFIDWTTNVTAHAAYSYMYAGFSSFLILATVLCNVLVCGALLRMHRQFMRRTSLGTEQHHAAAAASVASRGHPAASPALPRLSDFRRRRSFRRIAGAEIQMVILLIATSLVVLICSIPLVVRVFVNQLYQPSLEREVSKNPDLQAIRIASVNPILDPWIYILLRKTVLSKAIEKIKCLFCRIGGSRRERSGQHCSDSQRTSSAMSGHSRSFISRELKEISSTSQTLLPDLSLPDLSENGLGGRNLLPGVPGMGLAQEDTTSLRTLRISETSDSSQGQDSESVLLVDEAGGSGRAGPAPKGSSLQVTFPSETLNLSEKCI
Summary of the method: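 Antagonist mode: compound is given 15 min at 37 °C, then 20 nM (final) PGE2 for 120 min, in HEK293 cells stably expressing EP4 fused to ProLink and β-arrestin 2 fused to EA. Recruitment read as β-gal luminescence after 1 h reagent at room temperature, as percent of DMSO control.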

Sequence of PTGER2 (EP2) (P43116 whole entry): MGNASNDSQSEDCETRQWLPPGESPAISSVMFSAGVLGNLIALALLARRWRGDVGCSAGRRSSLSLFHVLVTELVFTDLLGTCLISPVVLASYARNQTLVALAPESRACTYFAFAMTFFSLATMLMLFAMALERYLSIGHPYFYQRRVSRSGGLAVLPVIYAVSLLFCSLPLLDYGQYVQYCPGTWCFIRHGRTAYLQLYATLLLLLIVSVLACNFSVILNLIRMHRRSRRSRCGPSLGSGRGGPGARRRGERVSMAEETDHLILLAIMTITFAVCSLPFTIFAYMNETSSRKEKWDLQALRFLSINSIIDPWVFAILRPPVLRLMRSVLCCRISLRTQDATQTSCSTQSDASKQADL

COc1ccc(F)c2c1cc(C#N)n2CCNc1cc(-c2ccc3nn[nH]c3c2)ncn1 [Example 985, 1-{2-[6-(3H-Benzotriazol-5-yl)-pyrimidin-4-ylamino]-ethyl}-7-fluoro-4-methoxy-1H-indole-2-carbonitrile]
IC50 (PTGER2 (EP2)): 25 nM
IC50 (PTRGER4 (EP4)): 14 nM

COc1ccc(F)c2c1cc(C#N)n2CCNc1cc(-c2ccnc(C3CC3)c2)ncn1 [Example 986, 1-{2-[6-(2-Cyclopropyl-pyridin-4-yl)-pyrimidin-4-ylamino]-ethyl}-7-fluoro-4-methoxy-1H-indole-2-carbonitrile]
IC50 (PTGER2 (EP2)): 9 nM
IC50 (PTRGER4 (EP4)): 66 nM

COc1ccc(F)c2c1cc(C#N)n2CCNc1cc(-c2ccc3[nH]c(=O)[nH]c3c2)ncn1 [Example 987, 7-Fluoro-1-{2-[6-(2-oxo-2,3-dihydro-1H-benzo[d]imidazol-5-yl)-pyrimidin-4-ylamino]-ethyl}-4-methoxy-1H-indole-2-carbonitrile]
IC50 (PTGER2 (EP2)): 44 nM
IC50 (PTRGER4 (EP4)): 67 nM

COc1ccc(F)c2c1cc(C#N)n2CCNc1cc(-c2ccnc(N)c2)ncn1 [Example 988, 1-{2-[6-(2-Amino-pyridin-4-yl)-pyrimidin-4-ylamino]-ethyl}-7-fluoro-4-methoxy-1H-indole-2-carbonitrile]
IC50 (PTGER2 (EP2)): 51 nM
IC50 (PTRGER4 (EP4)): 197 nM

COc1ccc(F)c2c1cc(C#N)n2CCNc1cc(-c2ccc(B(O)O)cc2)ncn1 [Example 989, (4-(6-((2-(2-Cyano-7-fluoro-4-methoxy-1H-indol-1-yl)ethyl)amino)pyrimidin-4-yl)phenyl)boronic acid]
IC50 (PTGER2 (EP2)): 67 nM
IC50 (PTRGER4 (EP4)): 62 nM

COc1ccc(F)c2c1cc(C#N)n2CCNc1cc(-c2ccc3c(c2)CCNC3=O)ncn1 [Example 990, 7-Fluoro-4-methoxy-1-{2-[6-(1-oxo-1,2,3,4-tetrahydro-isoquinolin-6-yl)-pyrimidin-4-ylamino]-ethyl}-1H-indole-2-carbonitrile]
IC50 (PTGER2 (EP2)): 3 nM
IC50 (PTRGER4 (EP4)): 19 nM

COc1ncc(-c2cc(NCCn3c(C#N)cc4c(OC)ccc(F)c43)ncn2)cn1 [Example 991, 7-Fluoro-4-methoxy-1-[2-(2′-methoxy-[4,5]bipyrimidinyl-6-ylamino)-ethyl]-1H-indole-2-carbonitrile]
IC50 (PTGER2 (EP2)): 142 nM
IC50 (PTRGER4 (EP4)): 540 nM

CCOc1cc(-c2cc(NCCn3c(C#N)cc4c(OC)ccc(F)c43)ncn2)ccc1C=O [Example 992, 1-{2-[6-(3-Ethoxy-4-formyl-phenyl)-pyrimidin-4-ylamino]-ethyl}-7-fluoro-4-methoxy-1H-indole-2-carbonitrile]
IC50 (PTGER2 (EP2)): 27 nM
IC50 (PTRGER4 (EP4)): 35 nM

COc1ccc(F)c2c1cc(C#N)n2CCNc1cc(-c2c(C)noc2C)ncn1 [Example 993, 1-{2-[6-(3,5-Dimethyl-isoxazol-4-yl)-pyrimidin-4-ylamino]-ethyl}-7-fluoro-4-methoxy-1H-indole-2-carbonitrile]
IC50 (PTGER2 (EP2)): 80 nM
IC50 (PTRGER4 (EP4)): 344 nM

COc1ccc(F)c2c1cc(C#N)n2CCNc1cc(-c2ccc3[nH]ccc3c2)ncn1 [Example 994, 7-Fluoro-1-{2-[6-(1H-indol-5-yl)-pyrimidin-4-ylamino]-ethyl}-4-methoxy-1H-indole-2-carbonitrile]
IC50 (PTGER2 (EP2)): 7 nM
IC50 (PTRGER4 (EP4)): 6 nM

COc1ccc(F)c2c1cc(C#N)n2CCNc1cc(-c2ccc3nccn3c2)ncn1 [Example 995, 7-Fluoro-1-[2-(6-imidazo[1,2-a]pyridin-6-yl-pyrimidin-4-ylamino)-ethyl]-4-methoxy-1H-indole-2-carbonitrile]
IC50 (PTGER2 (EP2)): 13 nM
IC50 (PTRGER4 (EP4)): 52 nM

COCCNC(=O)c1ccc(-c2cc(NCCn3c(C#N)cc4c(OC)ccc(F)c43)ncn2)cc1 [Example 996, 4-{6-[2-(2-Cyano-7-fluoro-4-methoxy-indol-1-yl)-ethylamino]-pyrimidin-4-yl}-N-(2-methoxy-ethyl)-benzamide]
IC50 (PTGER2 (EP2)): 39 nM
IC50 (PTRGER4 (EP4)): 99 nM

COc1ccc(F)c2c1cc(C#N)n2CCNc1cc(-c2ccnc(N3CCCC3)c2)ncn1 [Example 997, 7-Fluoro-4-methoxy-1-{2-[6-(2-pyrrolidin-1-yl-pyridin-4-yl)-pyrimidin-4-ylamino]-ethyl}-1H-indole-2-carbonitrile]
IC50 (PTGER2 (EP2)): 58 nM
IC50 (PTRGER4 (EP4)): 143 nM

COc1ccc(F)c2c1cc(C#N)n2CCNc1cc(-c2c(C)nn(C)c2C)ncn1 [Example 998, 7-Fluoro-4-methoxy-1-{2-[6-(1,3,5-trimethyl-1H-pyrazol-4-yl)-pyrimidin-4-ylamino]-ethyl}-1H-indole-2-carbonitrile]
IC50 (PTGER2 (EP2)): 48 nM
IC50 (PTRGER4 (EP4)): 686 nM

COC(=O)c1ccc(-c2cc(NCCn3c(C#N)cc4c(OC)ccc(F)c43)ncn2)cc1F [Example 999, 4-{6-[2-(2-Cyano-7-fluoro-4-methoxy-indol-1-yl)-ethylamino]-pyrimidin-4-yl}-2-fluoro-benzoic acid methyl ester]
IC50 (PTGER2 (EP2)): 30 nM
IC50 (PTRGER4 (EP4)): 23 nM

COc1ccc(F)c2c1cc(C#N)n2CCNc1cc(-c2ccc3[nH]c(=O)[nH]c3c2)ncn1 [Example 1000, 7-Fluoro-4-methoxy-1-{2-[6-(2-oxo-2,3-dihydro-1H-benzoimidazol-5-yl)-pyrimidin-4-ylamino]-ethyl}-1H-indole-2-carbonitrile]
IC50 (PTGER2 (EP2)): 35 nM
IC50 (PTRGER4 (EP4)): 79 nM

COc1ccc(F)c2c1cc(C#N)n2CCNc1cc(-c2ccc(O)c(C(F)(F)F)c2)ncn1 [Example 1001, 7-Fluoro-1-{2-[6-(4-hydroxy-3-trifluoromethyl-phenyl)-pyrimidin-4-ylamino]-ethyl}-4-methoxy-1H-indole-2-carbonitrile]
IC50 (PTGER2 (EP2)): 6 nM
IC50 (PTRGER4 (EP4)): 7 nM

CCOc1cc(C(=O)O)cc(-c2cc(NCCn3c(C#N)cc4c(OC)ccc(F)c43)ncn2)c1 [Example 1002, 3-{6-[2-(2-Cyano-7-fluoro-4-methoxy-indol-1-yl)-ethylamino]-pyrimidin-4-yl}-5-ethoxy-benzoic acid]
IC50 (PTGER2 (EP2)): 20 nM
IC50 (PTRGER4 (EP4)): 31 nM

COc1ccc(F)c2c1cc(C#N)n2CCNc1cc(-c2ccnc(N3CCOCC3)c2)ncn1 [Example 1003, 7-Fluoro-4-methoxy-1-{2-[6-(2-morpholin-4-yl-pyridin-4-yl)-pyrimidin-4-ylamino]-ethyl}-1H-indole-2-carbonitrile]
IC50 (PTGER2 (EP2)): 55 nM
IC50 (PTRGER4 (EP4)): 131 nM

COc1ccc(F)c2c1cc(C#N)n2CCNc1cc(-c2cccc(CC(=O)O)c2)ncn1 [Example 1004, (3-{6-[2-(2-Cyano-7-fluoro-4-methoxy-indol-1-yl)-ethylamino]-pyrimidin-4-yl}-phenyl)-acetic acid]
IC50 (PTGER2 (EP2)): 117 nM
IC50 (PTRGER4 (EP4)): 144 nM

COc1cc(C(=O)O)cc(-c2cc(NCCn3c(C#N)cc4c(OC)ccc(F)c43)ncn2)c1 [Example 1005, 3-{6-[2-(2-Cyano-7-fluoro-4-methoxy-indol-1-yl)-ethylamino]-pyrimidin-4-yl}-5-methoxy-benzoic acid]
IC50 (PTGER2 (EP2)): 18 nM
IC50 (PTRGER4 (EP4)): 55 nM

COc1ccc(F)c2c1cc(C#N)n2CCNc1cc(-c2ccnc(OC(F)F)c2)ncn1 [Example 1006, 1-{2-[6-(2-Difluoromethoxy-pyridin-4-yl)-pyrimidin-4-ylamino]-ethyl}-7-fluoro-4-methoxy-1H-indole-2-carbonitrile]
IC50 (PTGER2 (EP2)): 131 nM
IC50 (PTRGER4 (EP4)): 450 nM

COc1ccc(F)c2c1cc(C#N)n2CCNc1cc(-c2ccnc(C(F)(F)F)c2)ncn1 [Example 1007, 7-Fluoro-4-methoxy-1-{2-[6-(2-trifluoromethyl-pyridin-4-yl)-pyrimidin-4-ylamino]-ethyl}-1H-indole-2-carbonitrile]
IC50 (PTGER2 (EP2)): 24 nM
IC50 (PTRGER4 (EP4)): 67 nM

COc1ccc(F)c2c1cc(C#N)n2CCNc1cc(-c2cc(C(=O)O)cs2)ncn1 [Example 1008, 5-{6-[2-(2-Cyano-7-fluoro-4-methoxy-indol-1-yl)-ethylamino]-pyrimidin-4-yl}-thiophene-3-carboxylic acid]
IC50 (PTGER2 (EP2)): 234 nM
IC50 (PTRGER4 (EP4)): 507 nM

CCOC(=O)c1csc(-c2cc(NCCn3c(C#N)cc4c(OC)ccc(F)c43)ncn2)c1 [Example 1009, 5-{6-[2-(2-Cyano-7-fluoro-4-methoxy-indol-1-yl)-ethylamino]-pyrimidin-4-yl}-thiophene-3-carboxylic acid ethyl ester]
IC50 (PTGER2 (EP2)): 20 nM
IC50 (PTRGER4 (EP4)): 11 nM

CNc1cc(-c2cc(NCCn3c(C#N)cc4c(OC)ccc(F)c43)ncn2)ccc1C(=O)O [Example 1010, 4-{6-[2-(2-Cyano-7-fluoro-4-methoxy-indol-1-yl)-ethylamino]-pyrimidin-4-yl}-2-methylamino-benzoic acid]
IC50 (PTGER2 (EP2)): 3 nM
IC50 (PTRGER4 (EP4)): 7 nM

COc1ccc(F)c2c1cc(C#N)n2CCNc1cc(-c2cccc(CCC(=O)O)c2)ncn1 [Example 1011, 3-(3-{6-[2-(2-Cyano-7-fluoro-4-methoxy-indol-1-yl)-ethylamino]-pyrimidin-4-yl}-phenyl)-propionic acid]
IC50 (PTGER2 (EP2)): 120 nM
IC50 (PTRGER4 (EP4)): 228 nM

CNc1cc(-c2cc(NCCn3c(C)cc4c(C)c(F)cc(F)c43)ncn2)ccc1C(=O)O [Example 1012, 4-{6-[2-(5,7-Difluoro-2,4-dimethyl-indol-1-yl)-ethylamino]-pyrimidin-4-yl}-2-methylamino-benzoic acid]
IC50 (PTGER2 (EP2)): 5 nM
IC50 (PTRGER4 (EP4)): 37 nM

COc1ccc(F)c2c1cc(C)n2CCNc1cc(-c2cc(OC(C)C)c(CCC(=O)O)s2)ncn1 [Example 1013, 3-(5-{6-[2-(7-Fluoro-4-methoxy-2-methyl-indol-1-yl)-ethylamino]-pyrimidin-4-yl}-3-isopropoxy-thiophen-2-yl)-propionic acid]
IC50 (PTGER2 (EP2)): 14 nM
IC50 (PTRGER4 (EP4)): 17 nM

CCOc1cc(-c2cc(NCCn3c(C)cc4c(OC)ccc(F)c43)ncn2)[nH]c1C(=O)O [Example 1014, 3-Ethoxy-5-{6-[2-(7-fluoro-4-methoxy-2-methyl-indol-1-yl)-ethylamino]-pyrimidin-4-yl}-1H-pyrrole-2-carboxylic acid]
IC50 (PTGER2 (EP2)): 7 nM
IC50 (PTRGER4 (EP4)): 351 nM
